Starred links: 1 amine or outer side, 2 acyl side, 3 side chain; linkers in the order of their positions; H or OH if unused. Positions of bridges follow the written chain, without caps; N, C: chain ends. Non-standard residues stand in square brackets, D forms with d. Residues, ends and D or L forms follow the SMILES beside them. *: point of attachment. JQ1acid = Cc1sc2c(c1C)C(c1ccc(Cl)cc1)=N[C@@H](CC(=O)*)c1nnc(C)n1-2; dPhg(4-(4-Me-thiazol-5-yl)) = Cc1ncsc1-c1ccc([C@@H](N)C(=O)O)cc1; Phg(4-(4-Me-thiazol-5-yl)) = Cc1ncsc1-c1ccc([C@H](N)C(=O)O)cc1; dDap(Me) = CN(C[C@@H](N[*:1])C(=O)[*:2])[*:3]; dBip = N[C@H](Cc1ccc(-c2ccccc2)cc1)C(=O)O; NHCH2CH2SCH2CO = O=C(CSCCN[*:1])[*:2]; Hyp = O=C(O)[C@@H]1C[C@@H](O)CN1; d(β3hK) = NCCCC[C@@H](N)CC(=O)O; d4Pal = N[C@H](Cc1ccncc1)C(=O)O; Tle = CC(C)(C)[C@H](N)C(=O)O; dDap = NC[C@@H](N)C(=O)O; PEG1 = NCCOCCC(=O)O; Ahx = NCCCCCC(=O)O; AEA = NCCOCC(=O)O
Target: T1, BRD4 (Homo sapiens, UniProt O60885)
T1 construct: Mean 488 intensity of BRD4 quantitated in nuclear region; endogenous in cells; host or cells: EoL-1 eosinophilic leukemia cells
Assay: BRD4 degradation assay in EOL1 cells (immunofluorescence imaging)
Type: cell-based
Settings: EoL-1 eosinophilic leukemia cells, 4 hours treatment, nuclear BRD4 immunofluorescence
Procedure: BRD4 Degradation Assay in EOL1 Cells
EoL-1 eosinophilic leukemia cells were seeded on day 1 at a density of 45,000 cells per well in Corning PureCoat Amine Microplates, (Corning #354719) in 45 μL/well of assay media (RPMI, 10% FBS, containing L-glutamine). After cells attached to cell plate, compounds were serially diluted ⅓ in dimethylsulfoxide (DMSO) to create 20-point dilutions across a 384 well v-bottom polypropylene microplate (Greiner #781091). 2 μL of each sample from the serial dilution was transferred to 98 μL of assay media as an intermediate dilution. 5 μL of each well of the intermediate dilution was added to 45 μL of cell plate. Columns 1, 2, 23 and 24 were treated with only 0.2% final concentration of DMSO for data normalization as “neutral controls”. After compound treatment, cell plates were stored in a 37° C. incubator for 4 hours. After 4 hours cells were fixed in 3.7% w/v final concentration of paraformaldehyde by addition of 15 μL of 16% w/v paraformaldehyde (Electron Microscopy Sciences #15710-S) directly to the 50 μL media and compound in the cell plate. Cell plate was incubated at RT for 20 minutes. Well contents were aspirated and washed with 100 μL/well PBS 3 times. 50 ul/well of phosphate Buffered Saline (PBS) (pH 7.5) containing 0.5% w/v bovine serum albumen, 0.5% w/v Triton X-100 (Block/Permeabilization Buffer) was added to each well. Samples were incubated for 20 minutes. Well contents were aspirated and washed 3 times with 100 μL/well of PBS. PBS was aspirated from the well and 50 μL per well of EoL-1 Block Buffer (PBS containing 10% Normal Goat Serum (AbCam #ab7481)) was added to each well. Plates were incubated at room temperature for 30 minutes. Block buffer was decanted from the wells. Immunofluorescence staining of BRD4 was carried out by diluting mAB Anti-BRD4 [EPR5150] antibody (Abcam 128874) 1:500 into Antibody Dilution Buffer (PBS, 2% Normal Goat Serum). 25 μL per well of BRD4 antibody diluted in buffer was added and incubated overnight at 4° C.
On day-2 samples were washed 3 times with 100 μL/well of PBS. 25 μL/well of secondary antibody solution (Goat Anti-Rabbit IgG, DyLight 488 Conjugated Highly Cross-adsorbed Thermo Fisher #35553) and Hoechst 33342 1 μg/ml diluted in Antibody Dilution Buffer) were dispensed into each well. Hoechst 33342 only was added to bottom 3 columns for data normalization as “inhibitor controls”. Samples were incubated for 2 hours at room temperature. Samples were washed 3 times with 100 μL PBS. Quantitative fluorescence imaging of BRD4 was carried out using an Opera Phenix High-Content Screening System. Fluorescent images of the samples were captured using 488 nm and 405 nm channels. Hoechst channel was used to identify nuclear region. Mean 488 intensity of BRD4 quantitated in nuclear region. Data analysis was carried out using Genedata Screener, with DMSO and no primary antibody control treated samples being used to define the 0% and 100% changes in BRD4. The dose-response log(inhibitor) vs. response used to define the inflexion point of curve (DC50) and the plateau of the maximal effect.
The individual topological polar surface area (TPSA) and cLogP values were calculated using Chemdraw v. 15.1 (PerkinElmer). Half life of the ternary VHL/BD1 and VHL/BD2 complexes, DC50 of BRD4 in EOL1 cells, topological polar surface area of a molecule (TPSA) and c log P (lipophilicity) for compounds described herein are provided in Table 3.

SMILES | DC50 [µM]
Cc1ncsc1-c1ccc([C@H]2NC(=O)[C@@H]3C[C@@H](O)CN3C(=O)[C@H](C(C)(C)C)NC(=O)CSC[C@@H](C(N)=O)NC(=O)[C@@H](CNC(=O)C[C@@H]3N=C(c4ccc(Cl)cc4)c4c(sc(C)c4C)-n4c(C)nnc43)NC(=O)CNC2=O)cc1 [Compound 28] ({CH2CO}-[Tle][Hyp][dPhg(4-(4-Me-thiazol-5-yl))]G[dDap](JQ1acid)C-NH2; thioether N-6) | > 20
Cc1ncsc1-c1ccc([C@H]2NC(=O)[C@@H]3C[C@@H](O)CN3C(=O)[C@H](C(C)(C)C)NC(=O)CSC[C@H](C(N)=O)NC(=O)[C@@H](CN(C)C(=O)C[C@@H]3N=C(c4ccc(Cl)cc4)c4c(sc(C)c4C)-n4c(C)nnc43)NC(=O)CNC2=O)cc1 [Compound 29] ({CH2CO}-[Tle][Hyp][dPhg(4-(4-Me-thiazol-5-yl))]G[dDap(Me)](JQ1acid)[dC]-NH2; thioether N-6) | < 20
Cc1ncsc1-c1ccc([C@@H]2NC(=O)[C@@H]3C[C@@H](O)CN3C(=O)[C@H](C(C)(C)C)NC(=O)CSC[C@H](C(N)=O)NC(=O)[C@@H](CNC(=O)C[C@@H]3N=C(c4ccc(Cl)cc4)c4c(sc(C)c4C)-n4c(C)nnc43)NC(=O)[C@@H](C)NC2=O)cc1 [Compound 31] ({CH2CO}-[Tle][Hyp][Phg(4-(4-Me-thiazol-5-yl))][dA][dDap](JQ1acid)[dC]-NH2; thioether N-6) | > 20
Cc1ncsc1-c1ccc([C@H]2NC(=O)[C@@H]3C[C@@H](O)CN3C(=O)[C@H](C(C)(C)C)NC(=O)CCOCCNC(=O)[C@@H](CNC(=O)C[C@@H]3N=C(c4ccc(Cl)cc4)c4c(sc(C)c4C)-n4c(C)nnc43)NC(=O)CNC2=O)cc1 [Compound 32] (cyclo(G[dDap](JQ1acid)[PEG1][Tle][Hyp][dPhg(4-(4-Me-thiazol-5-yl))])) | > 20
Cc1ncsc1-c1ccc([C@H]2NC(=O)[C@@H]3C[C@@H](O)CN3C(=O)[C@H](C(C)(C)C)NC(=O)CNC(=O)[C@H](C)NC(=O)[C@@H](CNC(=O)C[C@@H]3N=C(c4ccc(Cl)cc4)c4c(sc(C)c4C)-n4c(C)nnc43)NC(=O)CNC2=O)cc1 [Compound 33] (cyclo(AG[Tle][Hyp][dPhg(4-(4-Me-thiazol-5-yl))]G[dDap](JQ1acid))) | < 1
Cc1ncsc1-c1ccc([C@@H]2NC(=O)[C@@H]3C[C@@H](O)CN3C(=O)[C@H](C(C)(C)C)NC(=O)COCCNC(=O)[C@@H](CNC(=O)C[C@@H]3N=C(c4ccc(Cl)cc4)c4c(sc(C)c4C)-n4c(C)nnc43)NC(=O)[C@H](C)NC2=O)cc1 [Compound 35] (cyclo(A[dDap](JQ1acid)[AEA][Tle][Hyp][Phg(4-(4-Me-thiazol-5-yl))])) | > 20
Cc1ncsc1-c1ccc([C@H]2NC(=O)[C@@H]3C[C@@H](O)CN3C(=O)[C@H](C(C)(C)C)NC(=O)CNC(=O)C[C@@H](CCCCNC(=O)C[C@@H]3N=C(c4ccc(Cl)cc4)c4c(sc(C)c4C)-n4c(C)nnc43)NC(=O)CNC2=O)cc1 [Compound 36] (cyclo(G[Tle][Hyp][dPhg(4-(4-Me-thiazol-5-yl))]G[d(β3hK)](JQ1acid))) | > 20
Cc1ncsc1-c1ccc([C@@H]2NC(=O)[C@@H]3C[C@@H](O)CN3C(=O)[C@H](C(C)(C)C)NC(=O)CNC(=O)C[C@@H](CCCCNC(=O)C[C@@H]3N=C(c4ccc(Cl)cc4)c4c(sc(C)c4C)-n4c(C)nnc43)NC(=O)CNC2=O)cc1 [Compound 37] (cyclo(G[Tle][Hyp][Phg(4-(4-Me-thiazol-5-yl))]G[d(β3hK)](JQ1acid))) | > 20
Cc1ncsc1-c1ccc([C@H]2NC(=O)[C@@H]3C[C@@H](O)CN3C(=O)[C@H](C(C)(C)C)NC(=O)CCCCCNC(=O)[C@@H](CNC(=O)C[C@@H]3N=C(c4ccc(Cl)cc4)c4c(sc(C)c4C)-n4c(C)nnc43)NC(=O)CNC2=O)cc1 [Compound 38] (cyclo([Ahx][Tle][Hyp][dPhg(4-(4-Me-thiazol-5-yl))]G[dDap](JQ1acid))) | < 1
Cc1ncsc1-c1ccc([C@@H]2NC(=O)[C@@H]3C[C@@H](O)CN3C(=O)[C@H](C(C)(C)C)NC(=O)CCCCCNC(=O)[C@@H](CNC(=O)C[C@@H]3N=C(c4ccc(Cl)cc4)c4c(sc(C)c4C)-n4c(C)nnc43)NC(=O)CNC2=O)cc1 [Compound 39] (cyclo([Ahx][Tle][Hyp][Phg(4-(4-Me-thiazol-5-yl))]G[dDap](JQ1acid))) | < 1
Cc1sc2c(c1C)C(c1ccc(Cl)cc1)=N[C@@H](CC(=O)NC[C@H]1NC(=O)CNC(=O)[C@@H](Cc3ccc(-c4ccccc4)cc3)NC(=O)[C@@H]3C[C@@H](O)CN3C(=O)[C@H](C(C)(C)C)NC(=O)COCCNC1=O)c1nnc(C)n1-2 [Compound 40] (cyclo([AEA][Tle][Hyp][dBip]G[dDap](JQ1acid))) | < 0.05
Cc1sc2c(c1C)C(c1ccc(Cl)cc1)=N[C@@H](CC(=O)NC[C@H]1NC(=O)[C@@H](C)NC(=O)[C@@H](Cc3ccc(-c4ccccc4)cc3)NC(=O)[C@@H]3C[C@@H](O)CN3C(=O)[C@H](C(C)(C)C)NC(=O)COCCNC1=O)c1nnc(C)n1-2 [Compound 41] (cyclo([AEA][Tle][Hyp][dBip][dA][dDap](JQ1acid))) | < 0.05
Cc1sc2c(c1C)C(c1ccc(Cl)cc1)=N[C@@H](CC(=O)NC[C@H]1NC(=O)[C@@H](C(C)C)NC(=O)[C@@H](Cc3ccc(-c4ccccc4)cc3)NC(=O)[C@@H]3C[C@@H](O)CN3C(=O)[C@H](C(C)(C)C)NC(=O)COCCNC1=O)c1nnc(C)n1-2 [Compound 42] (cyclo([AEA][Tle][Hyp][dBip][dV][dDap](JQ1acid))) | < 0.05
Cc1sc2c(c1C)C(c1ccc(Cl)cc1)=N[C@@H](CC(=O)NC[C@H]1NC(=O)[C@@H](Cc3ccncc3)NC(=O)[C@@H](Cc3ccc(-c4ccccc4)cc3)NC(=O)[C@@H]3C[C@@H](O)CN3C(=O)[C@H](C(C)(C)C)NC(=O)COCCNC1=O)c1nnc(C)n1-2 [Compound 43] (cyclo([AEA][Tle][Hyp][dBip][d4Pal][dDap](JQ1acid))) | < 0.05
Cc1sc2c(c1C)C(c1ccc(Cl)cc1)=N[C@@H](CC(=O)NC[C@H]1NC(=O)[C@@H](Cc3ccccc3)NC(=O)[C@@H](Cc3ccc(-c4ccccc4)cc3)NC(=O)[C@@H]3C[C@@H](O)CN3C(=O)[C@H](C(C)(C)C)NC(=O)COCCNC1=O)c1nnc(C)n1-2 [Compound 44] (cyclo([AEA][Tle][Hyp][dBip][dF][dDap](JQ1acid))) | < 0.05
Cc1sc2c(c1C)C(c1ccc(Cl)cc1)=N[C@@H](CC(=O)NC[C@H]1NC(=O)[C@@H](Cc3ccc(-c4ccccc4)cc3)NC(=O)[C@@H](Cc3ccc(-c4ccccc4)cc3)NC(=O)[C@@H]3C[C@@H](O)CN3C(=O)[C@H](C(C)(C)C)NC(=O)COCCNC1=O)c1nnc(C)n1-2 [Compound 45] (cyclo([AEA][Tle][Hyp][dBip][dBip][dDap](JQ1acid))) | < 1
Cc1ncsc1-c1ccc([C@H]2NC(=O)[C@@H]3C[C@@H](O)CN3C(=O)[C@H](C(C)(C)C)NC(=O)CSCCNC(=O)[C@@H](CNC(=O)C[C@@H]3N=C(c4ccc(Cl)cc4)c4c(sc(C)c4C)-n4c(C)nnc43)NC(=O)CNC2=O)cc1 [Compound 46] (cyclo(G[dDap](JQ1acid)[NHCH2CH2SCH2CO][Tle][Hyp][dPhg(4-(4-Me-thiazol-5-yl))])) | < 1
Cc1ncsc1-c1ccc([C@@H]2NC(=O)[C@@H]3C[C@@H](O)CN3C(=O)[C@H](C(C)(C)C)NC(=O)CSCCNC(=O)[C@@H](CNC(=O)C[C@@H]3N=C(c4ccc(Cl)cc4)c4c(sc(C)c4C)-n4c(C)nnc43)NC(=O)CNC2=O)cc1 [Compound 47] (cyclo(G[dDap](JQ1acid)[NHCH2CH2SCH2CO][Tle][Hyp][Phg(4-(4-Me-thiazol-5-yl))])) | > 20
Cc1sc2c(c1C)C(c1ccc(Cl)cc1)=N[C@@H](CC(=O)NC[C@H]1NC(=O)CNC(=O)[C@@H](Cc3ccc(-c4ccccc4)cc3)NC(=O)[C@@H]3C[C@@H](O)CN3C(=O)[C@H](C(C)(C)C)n3cc(nn3)COCCNC1=O)c1nnc(C)n1-2 [Compound 48] | < 0.05

— US12187816B2, “Macrocyclic compounds and methods of use thereof” (Genentech, Inc., priority 2020, dated 2025)
